These results are taken from patent US20040092498A1, “Substituted glycine derivatives for use as medicaments” (priority 2002, published 2004).

Molecules are shown by their SMILES.

The assay concerns α2δ subunit. The experiment in a line: radioligand binding assay using [3H]gabapentin and the α2δ subunit. Particulars: [3H]gabapentin radioligand; α2δ subunit derived from porcine brain tissue. From the text: The biological activity of the compounds of the invention may be measured in a radioligand binding assay using [^3H]gabapentin and the α2δ subunit derived from porcine brain tissue (Gee N. S., Brown J. P., Dissanayake V. U. K., Offord J., Thurlow R., Woodruff G. N., J. Biol. Chem., 1996;271:[…]). Results may be expressed in terms of μM or nM α2δ binding affinity.
As for `NCc1ccc(SCCNCC(=O)O)cc1` [Example 8, [(2-{[4-(Aminomethyl)phenyl]sulfanyl}ethyl)amino]acetic acid], the “Activity (binding affinity)” value is listed as 987 nM.
In the case of `O=C(O)CNCCSc1ccc2ccncc2c1` [Example 11, {[2-(7-Isoquinolinylsulfanyl)ethyl]amino}acetic acid] it was 71 nM.
In the case of `O=C(O)CNCCSCc1ccc(Cl)cc1` [Example 10, ({2-[(4-Chlorobenzyl)sulfanyl]ethyl}amino)acetic acid] it was 507 nM; in that of `O=C(O)CNCCOc1ccc(Cl)cc1Cl` [Example 9, {[2-(2,4-Dichlorophenoxy)ethyl]amino}acetic acid], 1665 nM.
As for `CCOC(=O)CNCCSc1ccc(Cl)cc1` [Example 12, Ethyl ({2-[(4-chlorophenyl)sulfanyl]ethyl}amino)acetate], the figure is 5406 nM; as for `O=C(O)CNCCSc1ccc(Cl)cc1` [Example 6, ({2-[(4-Chlorophenyl)sulfanyl]ethyl}amino)acetic acid], 198 nM.
